{"source": "patent US20090012115A1", "about": "(Portola Pharmaceuticals, Inc., priority 2007, published 2009)", "key": {"[1]": {"target": "P2Y12 ADP receptor (Homo sapiens, UniProt Q9H244)", "sequence (Q9H244 whole entry)": "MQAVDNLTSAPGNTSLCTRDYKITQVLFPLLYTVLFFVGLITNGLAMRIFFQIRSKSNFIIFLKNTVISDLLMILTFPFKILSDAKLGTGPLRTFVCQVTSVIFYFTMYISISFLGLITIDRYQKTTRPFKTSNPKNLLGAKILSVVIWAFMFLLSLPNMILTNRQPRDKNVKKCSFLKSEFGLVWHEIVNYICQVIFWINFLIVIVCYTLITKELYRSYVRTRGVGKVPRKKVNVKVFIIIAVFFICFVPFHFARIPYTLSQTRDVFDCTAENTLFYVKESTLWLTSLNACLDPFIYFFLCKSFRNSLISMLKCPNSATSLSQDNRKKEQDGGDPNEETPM", "details": "cited from earlier work"}, "[2]": {"details": "compared with clopidogrel; cited from earlier work"}, "[3]": {"details": "cited from earlier work"}, "[4]": {"test_system": "preformed thrombi", "assay": "Thrombus stability / dethrombosis of preformed thrombi", "assay_type": "cell-based", "source_text": "The addition of a TP antagonist to preformed thrombi caused dethrombosis (FIG. 5A)."}, "[5]": {"test_system": "platelets", "details": "cited from earlier work"}, "[6]": {"test_system": "platelets recruited on the collagen surface", "assay": "Real time perfusion chamber thrombosis assay (whole blood over collagen-coated chamber, fluorescent platelets)", "assay_type": "cell-based, human", "details": "for interaction with antithrombotic activity of clopidogrel: 12 healthy individuals on clopidogrel 75 mg/d, ifetroban spiked into whole blood, aspirin 325 mg/d over the third week; for antithrombotic activity versus aspirin: 100 nM or 350 nM spiked in vitro", "procedure": "The experiment was performed by perfusing whole blood anticoagulated with factor Xa inhibitor (10 μM) through a human collagen type III-coated perfusion chamber. Platelets were fluorescently labeled in vitro using Rhodamine 6G (1.25 μg/ml final concentration), and thrombosis was monitored in real time by measuring the amount of fluorescent platelets recruited on the collagen surface using fluorescence microscopy. The results are depicted in FIG. 3.\nThe experiments are performed in the real time thrombosis perfusion chamber device. In this system, the real time thrombotic process triggered by perfusion of Factor Xa anticoagulated whole blood is studied using a collagen coated perfusion chamber at arterial shear rates.\nA dose response study of the antithrombotic and anti-aggregatory effects of vehicle control, indomethacin (from 10 nM to 10 uM), and ifetroban (from 10 nM to 3 uM) spiked in vitro in the blood of aspirin-intolerant individuals before, and after treatment with clopidogrel (75 mg/d for a minimum of 5 days, n≧10) is performed. Experiments are performed in the real time perfusion chamber assay under arterial shear rates conditions. […] By using indomethacin we can confirm that Cox-1 inhibition indeed can provide additional antithrombotic properties; however, the intolerance prevents the use of a COX-1 inhibitor.\nReal time perfusion chamber assays (RTTP) were performed using blood anticoagulated with Fxa inhibitor (10 uM 034) and perfused through collagen-coated capillaries (1100/sec). Thrombus formation on the collagen surface was monitored in real time using fluorescence microscopy to detect fluorescently labeled (R6G) platelets."}, "[7]": {"test_system": "platelets", "assay": "Collagen-induced platelet aggregation (light transmittance aggregometry)", "assay_type": "cell-based, human", "details": "for anti-aggregatory activity, collagen-induced platelet aggregation: 1 μM, 100 nM, 350 nM", "procedure": "PRP-induced platelet aggregation are performed with arachidonic acid (between 200 μM and 1 mM), U46619 (a TP agonist) (between 0.5 μM and 5 μM) and collagen (around 4 μg/ml) as platelet agonists. Indomethacin and\n(§1) Light transmittance aggregometry (LTA) assays were performed by standard procedures, initiating platelet aggregation with collagen or arachidonic acid."}, "[8]": {"test_system": "platelets", "assay": "Arachidonic acid-induced platelet aggregation (light transmittance aggregometry)", "assay_type": "cell-based, human", "details": "healthy volunteers and AERD patients; 1 μM, 350 nM, 100 nM; FIGS. 10A and 10B", "procedure": "as §1"}, "[9]": {"test_system": "platelet recruitment on the injured vessel wall", "assay": "Intravital microscopy, ferric chloride injury of mesenteric arteries", "assay_type": "in vivo, mice", "details": "Example 5; for antithrombotic activity in P2Y12 heterozygous animals: P2Y12 heterozygous mice; for antithrombotic activity in wild type animals: wild type mice", "procedure": "The methodology utilized is intravital microscopy. In this system, injury of the mesenteric arteries is performed by topical application of a filter paper that has been previously soaked into a ferric chloride solution. Monitoring of the recruitment of fluorescently labeled platelets on the injured vessel wall is performed in real time using an inverted fluorescent microscope connected to a computer."}, "[10]": {"test_system": "leukotrienes", "assay": "In vivo determination of the levels of leukotrienes", "set-up": "species or system mice", "details": "Example 5; treated animals", "source_text": "In vivo monitoring of gastrointestinal bleeding and determination of the levels of leukotrienes will be performed."}, "[11]": {"details": "Gresele et al.; cited from earlier work"}, "[12]": {"test_system": "coronary arteries", "details": "coronary arteries of dogs; cited from earlier work"}, "[13]": {"details": "HOT trial, hypertensive patients, 75 mg/d vs placebo"}}, "data": [{"molecule": "CNc1cc2[nH]c(=O)n(-c3ccc(NC(=O)NS(=O)(=O)c4ccc(Cl)s4)cc3)c(=O)c2cc1F", "values": [{"measurement": "de-aggregation of preformed thrombi", "setting": "[1]", "result": "de-aggregate preformed thrombi"}, {"measurement": "inhibition of ADP-mediated platelet aggregation", "setting": "[1]", "result": "reversible inhibitor"}, {"measurement": "pharmacokinetic properties", "setting": "[2]", "result": "superior pharmacokinetic properties to clopidogrel"}]}, {"molecule": "O=C(O)CC/C=C\\CC[C@@H]1[C@@H](N2CCCCC2)[C@@H](O)C[C@@H]1OCc1ccc(-c2ccccc2)cc1", "note": "[GR 32191, [1R-[1α(Z),2β,3β,5α]]-(+)-7-[5-([1,1′-biphenyl]-4-ylmethoxy)-3-hydroxy-2-(1-piperidinyl)cyclopentyl]-4-heptenoic acid]", "values": [{"measurement": "prevention of restenosis", "setting": "[3]; CARPORT trial", "result": "lack activity in the prevention of restenosis"}]}, {"molecule": "CCCCC[C@H](O)/C=C/[C@H]1C(=O)C[C@H](O)[C@@H]1C/C=C\\CCCC(=O)O", "note": "[PGD2, prostaglandin D2]", "values": [{"measurement": "dethrombotic activity", "setting": "[4]; physiological concentrations added to aspirinated blood, FIG. 5C", "result": "induced a profound dethrombotic activity"}]}, {"molecule": "O=C(O)COc1ccc(CCNS(=O)(=O)c2ccccc2)cc1", "note": "[Sulotroban]", "values": [{"measurement": "restenosis following PTCA", "setting": "[3]; M-HEART-II study, 752 patients", "result": "no different than aspirin or placebo"}, {"measurement": "clinical events (death, MI or clinically important restenosis)", "setting": "[3]; M-HEART-II study", "result": "inferior to aspirin"}]}, {"molecule": "CCCCC[C@H](O)/C=C/[C@@H]1[C@@H](C/C=C\\CCCC(=O)O)[C@H]2CO[C@@H]1C2", "note": "[U46619]", "values": [{"measurement": "thrombus stability", "setting": "[4]; TXA2 mimetic, FIG. 5B", "result": "can promote thrombus stability"}]}, {"molecule": "COC(=O)[C@H](c1ccccc1Cl)N1CCc2sccc2C1", "note": "[clopidogrel]", "values": [{"measurement": "efficacy versus aspirin", "setting": "[3]; CAPRIE trial", "result": "more efficacious than aspirin"}, {"measurement": "relative risk reduction", "setting": "[3]; CURE trial, clopidogrel with aspirin vs placebo plus aspirin, unstable angina or non-ST segment elevation MI", "result": 20, "unit": "%"}]}, {"molecule": "CC(C)Cc1ccc(C(C)C(=O)O)cc1", "note": "(stereo not shown) [ibuprofen]", "values": [{"measurement": "effect of concomitant administration on antiaggregatory activity of aspirin", "setting": "[5]; Catella-Lawson et al.", "result": "reduce the antiaggregatory activity of aspirin"}]}, {"molecule": "CCCCCNC(=O)c1coc([C@H]2[C@@H](Cc3ccccc3CCC(=O)[O-])[C@@H]3CC[C@H]2O3)n1.[Na+]", "note": "[ifetroban, [1S-(1α,2α,3α,4α)]-2-[[3-[4-[(pentylamino)carbonyl]-2-oxazolyl]-7-oxabicyclo[2.2.1]hept-2-yl]methyl]benzenepropanoic acid]", "values": [{"measurement": "inhibition of thrombosis on a clopidogrel background", "setting": "[6]; 30 nM to 1 μM spiked into whole blood of normal volunteers treated with clopidogrel 75 mg/day for 2 weeks, FIG. 4", "result": "inhibited thrombosis to the same extent as aspirin"}, {"measurement": "interaction with antithrombotic activity of clopidogrel", "setting": "[6]; FIG. 4", "result": "synergized with the antithrombotic activity of clopidogrel"}, {"measurement": "antithrombotic activity versus aspirin", "setting": "[6]; AERD patients, aspirin after desensitization, FIG. 7B", "result": "significant antithrombotic activity versus aspirin"}, {"measurement": "antithrombotic activity versus aspirin", "setting": "[6]; healthy volunteers, FIG. 7A", "result": "significant antithrombotic activity versus aspirin"}, {"measurement": "anti-aggregatory activity, collagen-induced platelet aggregation", "setting": "[7]; AERD patients, FIG. 8B", "result": "significant anti-aggregatory activity"}, {"measurement": "concentrations at which aspirin effects on collagen-induced platelet aggregation and thrombosis were reproduced", "setting": "[7]; AERD patients, FIG. 8B", "result": "> 100", "unit": "nM"}, {"measurement": "anti-aggregatory activity, collagen-induced platelet aggregation", "setting": "[7]; healthy volunteers, FIG. 8A", "result": "significant anti-aggregatory activity"}, {"measurement": "concentrations at which aspirin effects on collagen-induced platelet aggregation and thrombosis were reproduced", "setting": "[7]; normal volunteers, FIG. 8A", "result": "> 100", "unit": "nM"}, {"measurement": "anti-aggregatory activity, arachidonic acid-induced platelet aggregation", "setting": "[8]", "result": "anti-aggregatory activity"}, {"measurement": "antithrombotic activity in P2Y12 heterozygous animals", "setting": "[9]", "result": "profound inhibition"}, {"measurement": "antithrombotic activity in wild type animals", "setting": "[9]", "result": "at least similar antithrombotic activity"}, {"measurement": "levels of leukotrienes", "setting": "[10]", "result": "maintained constant"}]}, {"molecule": "COc1ccc2c(c1)c(CC(=O)O)c(C)n2C(=O)c1ccc(Cl)cc1", "note": "[indomethacin]", "values": [{"measurement": "effect on bleeding time prolongation activity of BM 13.177 promoted by dazoxiben", "setting": "[11]", "result": "blocked the ability of dazoxiben"}]}, {"molecule": "O=C(O)CCCCO/N=C(/c1cccnc1)c1cccc(C(F)(F)F)c1", "note": "[ridogrel]", "values": [{"measurement": "enhancing fibrinolytic efficacy of streptokinase", "setting": "[3]; RAPT study, 907 patients with acute myocardial infarction", "result": "not found to be superior to aspirin"}, {"measurement": "preventing new ischaemic events", "setting": "[3]; RAPT study", "result": "may have been more efficacious than aspirin"}]}, {"molecule": "CC(C)(C)N/C(=N\\C#N)Nc1cccc(/C(=C\\CCCC(=O)O)c2cccnc2)c1", "note": "[terbogrel, 5-hexenoic acid, 6-[3-[[(cyanoamino)[(1,1-dimethylethyl)amino]methylene]amino]phenyl]-6-(3-pyridinyl)-, (E-)]", "values": [{"measurement": "antiaggregatory activities in aspirin-treated individuals", "setting": "[5]; Zimmermann et al.", "result": "additional antiaggregatory activities"}]}, {"molecule": "ortho-acetylsalicylic acid [aspirin]", "values": [{"measurement": "interaction with antithrombotic activity of clopidogrel", "setting": "[6]; FIG. 4", "result": "synergized with the antithrombotic activity of clopidogrel"}, {"measurement": "effect of prior aspirin treatment on dethrombotic activity of a TP antagonist", "setting": "[4]; FIG. 5C", "result": "prevented by prior aspirin treatment"}, {"measurement": "antithrombotic activity in P2Y12 heterozygous animals", "setting": "[9]", "result": "profound inhibition"}, {"measurement": "antithrombotic activity in wild type animals", "setting": "[9]", "result": "at least similar antithrombotic activity"}, {"measurement": "levels of leukotrienes", "setting": "[10]", "result": "increased"}, {"measurement": "individuals developing gastroduodenal ulcers", "setting": "[3]; 75-325 mg doses", "result": "1 out of 10"}, {"measurement": "reduction in vascular events", "setting": "[3]; Antithrombotic Trialist's Collaboration, overall", "result": 22, "unit": "%"}, {"measurement": "reduction in cardiovascular events", "setting": "[3]; [13]", "result": 15, "unit": "%"}, {"measurement": "reduction in myocardial infarction", "setting": "[3]; [13]", "result": 36, "unit": "%"}, {"measurement": "incidence of cardiovascular death", "setting": "[3]; Primary Prevention Project, 100 mg/d, at-risk patients, reduced from 1.4%", "result": 0.8, "unit": "%"}, {"measurement": "reduction in adverse events", "setting": "[3]; hundreds of randomized clinical trials, at-risk patients", "result": "20-25%"}, {"measurement": "asthmatic adults developing severe bronchoconstriction", "setting": "[3]; oral challenge with aspirin or NSAID", "result": "5-20%"}, {"measurement": "effect on prolongation in occlusion time by U63,557a with L636,499", "setting": "[12]", "result": "inhibited the prolongation in occlusion time"}]}]}
